“Also recorded” adds a separate entry of the source.
Key:
[1] = test system: BCR-ABL^+LSC (Kit^+Sca1^+Lin^−GFP^+); assay: Apoptosis of BCR-ABL+ LSCs treated ex vivo (annexin V, flow cytometry); format: cell-based, mouse
Method: Apoptosis. Apoptosis of LSCs was performed using annexin V as described below in Supplementary Information and Methods.
Apoptosis. The LSCs were diluted in DMEM, resuspended using a 16-gauge needle, and collected by centrifugation. 1×10^5 cells were resuspended in 200 μl of binding buffer (0.1 M HEPES with 1.4 M NaCl, 25 mM CaCl2, pH 7.4). Annexin V FITC (BD Biosciences) was incubated with cells for 15 min on ice followed by flow cytometric analysis.
The ability of CyPGs derived from arachidonic acid (2 series PGs) to induce apoptosis was tested in cultures of LSCs from FV infected mice and in the murine CML model. […] 15d-PGJ2 is known as a PPAPγ agonist. […] In FIG. 7C Δ^12-PGJ3, 15d-PGJ2 or 9,10-dihydro-15d-PGJ2 are tested for their ability to induce apoptosis in a murine CML model. […] The cells were stained with annexin V-FITC and analyzed by flow cytometry. Representative of N=4. […] Inset: Effect of rosiglitazone on the apoptosis of LSC. Rosiglitazone (0.1-2.0 μM) was incubated with LSC in the culture media for 36 h as described earlier and the cells were subjected to annexin-V staining followed by flow cytometry. […] LSC were treated ex vivo with indicated concentrations of each compound for 36 h.
Following 36 h of incubation, apoptotic cells were quantified by annexin V staining. […] In a related study to address if Δ^12-PGJ3 treatment would cause any degranulation of granulocytes, a rat basophilic cell line ([…]) was treated with 100 nM Δ^12-PGJ3 and the degranulation was followed by quantitating the release of histamine and a second marker of degranulation, hexoseaminidase.
In this experiment, 500,000 BCR-ABL+ LSCs were plated in a 24-well plate followed and were treated with 25 nM PGD2Me or 100 nM ZK118182 (both are agonists of DP) for 24 h. GFP^+ cells were analyzed by flow cytometry. These agonists were purchased from Cayman Chemicals, MI.

[2] = test system: blast crisis CML cells from a patient (#011711); assay: Blast crisis CML patient cells: cytospin and annexin V apoptosis; format: cell-based, human
Method: An experiment involving a cytospin of Blast crisis CML (011711) and Geimsa stain was performed. Blast crisis CML were cultured in IMDM with BIT, LDL, L-Glu and treated with PBS or 100 nM Δ^12-PGJ3 for 12 hrs. Cells were collected and slides were done by Cytospin. Cytospin slides were stained with Wright Geimsa stain and pictures (100×) were recorded on a Material microscope.
In this experiment, 110,000/well primary AML cells were cultured in above specified media for 6 and 12 hrs. Cells were collected and washed once with ice cold PBS. The cells were resuspended in 200 ul 1× Apoptosis buffer with annexin-V PE to all tubes. The cells were washed in PBS and resuspended in 600 ul PBS and transfer into flow tubes and analyzed for apoptosis (Annexin V+ cells) on FC-500. […] In this experiment, 110,000/well AML cells were cultured in earlier mentioned media for 6 and 12 hrs. Cells were collected and washed once in PBS and resuspended in 200 ul PBS and blocked with FC receptor antibody 10 mins RT. The following antibodies were added: CD38, CD123, CD34, CD117 (BD bioscience) for 1 hr on ice. Cells were washed in PBS once and resuspended in 200 ul of apoptotic buffer, and annexin V was added and incubated for 15 mins. Apoptotic cells (Annexin V+ cells) were counted by flow cytometry. […] Apoptotic cells (Annexin V+ cells) were counted by flow cytometry.

[3] = test system: BCR-ABL^+LSC transplanted mice; assay: Murine CML model: mice transplanted with BCR-ABL+ LSCs; format: in vivo, mouse
Method: Induction of CML using MIGR-BCR-ABL retrovirus: MIGR-BCR-ABL and control MSCV-GFP retroviruses were obtained. […] C57BL/6 mice were treated with 5-fluorouracil (5-FU; 150 mg/Kg, Sigma, St. Louis, Mo.) to enrich for cycling HSCs. On day four after treatment bone marrow cells were harvested and infected with MIGR-BCR-ABL or MSCV-GFP control virus overnight in IMDM media containing 5% FCS and supplemented with 2.5 ng/ml IL-3 and 15 ng/ml SCF (R&D Systems Minneapolis, Minn.). 0.5×10^6 transduced cells were transplanted by retro-orbital injection into C57BL/6 recipient mice that were preconditioned with 950 Rads of irradiation. In order to increase the number of CML and control mice, 17 days after transplant GFP^+ spleen cells were isolated by FACS and 1×10^5 GFP^+ cells were transplanted into irradiated (950 Rads) secondary C57BL/6 recipients. Two weeks after transplant, mice were treated as indicated with CyPGs and vehicle control. For ex-vivo experiments, Kit^+Sca1^+Lin^−GFP^+ cells were isolated from the bone marrow or spleen of transplanted mice by FACS. The sorted cells were cultured in Methocult media M3334 (Stem Cell Technologies Vancouver BC) M3334 supplemented with Shh, SCF, and BMP4 and treated with the indicated CyPGs and vehicle controls for indicated time periods. […] The hematopoietic colonies (colony forming cells in culture, CFC) were scored.
Treatment of Mice with PGs: Mice with FV-induced erythroleukemia or MIGR-BCR-ABL induced CML were treated on the indicated days with CyPGs. Mice were treated with a daily intraperitoneal injection of Δ^12-PGJ3 (0.01-0.1 mg/kg), 15d-PGJ2 (0.1 mg/kg), or 9,10-dihydro-15d-PGJ2 (0.1 mg/kg) for 7 days. All three compounds were formulated with hydroxypropyl-β-cyclodextrin (30% w/v; Sigma; vehicle control).

[4] = test system: primary human AML cells; LSCs (CD34+CD38−CD123+); assay: Apoptosis of primary human AML cells and AML LSCs (annexin V); format: cell-based
Method: In this experiment, 110,000/well primary AML cells were cultured in above specified media for 6 and 12 hrs. Cells were collected and washed once with ice cold PBS. The cells were resuspended in 200 ul 1× Apoptosis buffer with annexin-V PE to all tubes. The cells were washed in PBS and resuspended in 600 ul PBS and transfer into flow tubes and analyzed for apoptosis (Annexin V+ cells) on FC-500. […] In this experiment, 110,000/well AML cells were cultured in earlier mentioned media for 6 and 12 hrs. Cells were collected and washed once in PBS and resuspended in 200 ul PBS and blocked with FC receptor antibody 10 mins RT. The following antibodies were added: CD38, CD123, CD34, CD117 (BD bioscience) for 1 hr on ice. Cells were washed in PBS once and resuspended in 200 ul of apoptotic buffer, and annexin V was added and incubated for 15 mins. Apoptotic cells (Annexin V+ cells) were counted by flow cytometry. […] Cells were collected and washed once in PBS and resuspended in 200 ul PBS and blocked with FC receptor antibody 10 mins RT. The following antibodies were added: CD38, CD123, CD34 (BD bioscience) for 1 hr on ice. Cells were washed in PBS once and resuspended in 200 ul of apoptotic buffer, and annexin V was added and incubated for 15 mins. Apoptotic cells (Annexin V+ cells) were counted by flow cytometry.
Referring to the results shown in FIG. 16, these experiments were performed with primary AML stem cells isolated from a patient. […] In an identical experiment, the cells were also treated with a synthetic DP agonist, ZK118182 (100 nM). Apoptosis of cells (by annexin V staining) was measured using flow cytometry.

p53 = p53 expression in BCR-ABL+ LSCs treated ex vivo; format: cell-based, mouse; details: 25 nM ex vivo
[5] = test system: MSCV-GFP^+ HSC transplanted mice (steady state hematopoiesis); assay: Control mice transplanted with MSCV-GFP+ HSCs, treated; details: mouse, in vivo
Method: Induction of CML using MIGR-BCR-ABL retrovirus: MIGR-BCR-ABL and control MSCV-GFP retroviruses were obtained. […] C57BL/6 mice were treated with 5-fluorouracil (5-FU; 150 mg/Kg, Sigma, St. Louis, Mo.) to enrich for cycling HSCs. On day four after treatment bone marrow cells were harvested and infected with MIGR-BCR-ABL or MSCV-GFP control virus overnight in IMDM media containing 5% FCS and supplemented with 2.5 ng/ml IL-3 and 15 ng/ml SCF (R&D Systems Minneapolis, Minn.). 0.5×10^6 transduced cells were transplanted by retro-orbital injection into C57BL/6 recipient mice that were preconditioned with 950 Rads of irradiation. In order to increase the number of CML and control mice, 17 days after transplant GFP^+ spleen cells were isolated by FACS and 1×10^5 GFP^+ cells were transplanted into irradiated (950 Rads) secondary C57BL/6 recipients. Two weeks after transplant, mice were treated as indicated with CyPGs and vehicle control. For ex-vivo experiments, Kit^+Sca1^+Lin^−GFP^+ cells were isolated from the bone marrow or spleen of transplanted mice by FACS. The sorted cells were cultured in Methocult media M3334 (Stem Cell Technologies Vancouver BC) M3334 supplemented with Shh, SCF, and BMP4 and treated with the indicated CyPGs and vehicle controls for indicated time periods. […] The hematopoietic colonies (colony forming cells in culture, CFC) were scored. […]

residual FV-LSCs = assay: Secondary transplants from treated FV-LSC mice into BALB/c-Stk−/− recipients; format: in vivo, mouse; details: donor cells from treated FV-LSC transplanted mice
Method: Secondary transplants to test for residual LSCs after treatment with Δ^12-PGJ3: For the CML model, B6.SJLPtprca Pep3b/BoyJ (CD45.1^+) mice were treated with 5-FU and bone marrow cells enriched in cycling HSCs were isolated followed by infection with MIGR-BCR-ABL virus or control MSCV-GFP virus as described above. The cells were transplanted into C57BL/6 (CD45.2) recipient mice as mentioned earlier. The mice were treated with Δ^12-PGJ3 or vehicle control as indicated. Two weeks after treatment, spleen cells were isolated and transplanted into irradiated secondary C57BL/6 (CD45.2) recipients as described above. Two weeks after secondary transplant, mice were analyzed for WBC counts, splenomegaly and the presence of GFP^+ or CD45.1 donor cells in the bone marrow and spleen by flow cytometry. Secondary transplants were also done with FV infected mice treated with Δ^12-PGJ3 or vehicle control. BALB/c mice were infected with Friend virus as described above. The mice were treated with Δ^12-PGJ3 or vehicle control as indicated. Two weeks after treatment, spleen cells isolated from FV-infected mice and transplanted into BALB/c-Stk^−/− recipient mice (1×10^5 cells per mouse). Five weeks post transplant, the mice with secondary transplants were tested for WBC counts, splenomegaly and for the presence of M34^+Kit^+Sca1^+FV-LSCs by flow cytometry.

[6] = test system: Human unfractionated bone marrow cells
Method: Human unfractionated bone marrow cells (5×10^5 per well) were plated in methylcellulose complete media containing IL-3, GM-CSF, G-CSF, SCF and Epo supplemented with the indicated concentrations of drugs. Total colonies were counted after 12 days.

`CC/C=C\C[C@H](O)C/C=C1/C(=O)C=C[C@@H]1C/C=C\CCCC(=O)O` [Δ^12-PGJ3, Δ^12-prostaglandin J3] was tested, and the “apoptosis of BCR-ABL+LSCs” value ([1]; 25 nM, annexin V, caspase 3 and caspase 8 activation) was “significant increase in apoptosis; also recorded: highly susceptible to apoptosis”, the “apoptosis of Sca1+GFP+Kit+ BCR-ABL+LSC from spleen” value ([1]; 25-1000 nM, 36 h) was “significantly increased their apoptosis” and the IC50 ([1]; Kit+Sca1+Lin−GFP+ LSCs from spleen of BCR-ABL mice, ex vivo 36 h, annexin V) was ~12 nM. For the same compound, the “cell death, cytospin with Wright Geimsa stain” value ([2]; 100 nM, 12 hrs) was “death of blast-crisis CML cells”, the “apoptosis (Annexin V+ cells)” value ([2]; 6 and 12 hrs) was “induces apoptosis in BC-CML primary patient cells” and the splenomegaly ([3]; 0.05 mg/kg for 1 week) was “completely alleviated splenomegaly”. For the same compound, the “Kit+Sca1+GFP+ LSCs in the spleen” value ([3]; 1 week treatment) was “decreased”, the “Kit+Sca1+Lin−GFP+ LSCs in the bone marrow” value ([3]; 1 week treatment) was “eradicated” and the “leukocyte counts in peripheral blood” value ([3]; 1 week treatment) was “significantly decreased the leukocyte counts”. For the same compound, the “survival and relapse, comparison with imatinib” value ([3]; Imatinib 75 mg/kg, Δ^12-PGJ3 0.025 mg/kg, 1 week) was “prolonged survival, but no relapse of leukemia”, the “relapse after last dose” value ([3]; intraperitoneal, five weeks post last dose) was “no relapse” and the survival ([3]; vehicle mice died two weeks after transplantation) was “rescued all of the mice”. The “apoptosis of AML LSCs (Annexin V+ fraction of CD34+CD38−CD123+ cells)” value ([4]; 100 nM, 6 h, patients #100810, #123009, #033107, #041909, #101308) was “targeted the LSCs in all these samples”, the “apoptosis of primary human AML cells (Annexin V+)” value ([4]; 100 nM, 6 and 12 hrs) was “induces apoptosis of primary human AML cells” and the “apoptosis of primary AML cells from bone marrow of an AML patient (72% CD133+)” value ([4]; 5, 50, 100 nM, 6 and 24 h, annexin V) was “effective even in human primary leukemia stem cells”. The “p53 mRNA” value (p53) was “increase in p53 transcription”, the “WBC counts, other hematological parameters, survival” value [5] was “had no effect on WBC counts or other hematological parameters or survival” and the “splenomegaly, WBC counts and LSCs in secondary recipients” value (residual FV-LSCs) was “failed to develop splenomegaly or high WBC counts and lacked LSCs in their spleens”. For the same compound, the “total colonies of human bone marrow cells” value [6] was “had no effect”.
